Data reported in ChEMBL document CHEMBL1201862, “PubChem BioAssay data set” (2004).
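Where inhibition never reached the appropriate level, the endpoint shown equals the highest concentration tested. Otherwise, values were interpolated linearly from a five-concentration, 48-hour dose response in 96-well plates. GI50 = concentration required for 50% inhibition of growth.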 Active and inactive are the calls of the source. No stated cut-off is given here; in the data, active = GI50 up to about 1.1 µM and inactive = higher.

How the values were obtained:
Assay in all cases: DTP human tumour cell line panel, 48 h
MOLT-4 = tested on: MOLT-4
Malme-3M = tested on: Malme-3M
UACC-62 = tested on: UACC-62
SN12C = tested on: SN12C
CAKI-1 = tested on: CAKI-1
786-0 = tested on: 786-0
UO-31 = tested on: UO-31
CCRF-CEM = tested on: CCRF-CEM
NCI/ADR-RES = tested on: NCI/ADR-RES
T47D = tested on: T47D
SK-MEL-28 = tested on: SK-MEL-28
UACC-257 = tested on: UACC-257
HCT-116 = tested on: HCT-116
Hs-578T = tested on: Hs-578T
SNB-75 = tested on: SNB-75
NCI-H23 = tested on: NCI-H23
OVCAR-4 = tested on: OVCAR-4
MDA-N = tested on: MDA-N
OVCAR-5 = tested on: OVCAR-5
HCC 2998 = tested on: HCC 2998
SK-OV-3 = tested on: SK-OV-3
RPMI-8226 = tested on: RPMI-8226
HCT-15 = tested on: HCT-15
EKVX = tested on: EKVX
SW-620 = tested on: SW-620
SF-295 = tested on: SF-295
ACHN = tested on: ACHN
PC-3 = tested on: PC-3
SNB-19 = tested on: SNB-19
A498 = tested on: A498
MCF7 = tested on: MCF7
K562 = tested on: K562
SK-MEL-2 = tested on: SK-MEL-2
HOP-62 = tested on: HOP-62
A549 = tested on: A549
OVCAR-8 = tested on: OVCAR-8
BT-549 = tested on: BT-549
MDA-MB-435 = tested on: MDA-MB-435
NCI-H226 = tested on: NCI-H226
SF-539 = tested on: SF-539
MDA-MB-231 = tested on: MDA-MB-231
COLO 205 = tested on: COLO 205
KM12 = tested on: KM12
M14 = tested on: M14
NCI-H460 = tested on: NCI-H460
SF-268 = tested on: SF-268
OVCAR-3 = tested on: OVCAR-3
U-251 = tested on: U-251
HT-29 = tested on: HT-29
SK-MEL-5 = tested on: SK-MEL-5
TK-10 = tested on: TK-10
RXF 393 = tested on: RXF 393
SR = tested on: SR
LOX IMVI = tested on: LOX IMVI
IGROV-1 = tested on: IGROV-1
NCI-H522 = tested on: NCI-H522

`CCOc1ccc(N/C(=C(/C(Cl)=C(/Cl)NCCN)[N+](=O)[O-])n2nnc3ccccc32)cc1` was tested, and the GI50 (MOLT-4) was 16.5 µM (inactive), the GI50 (Malme-3M) was 14.5 µM (inactive) and the GI50 (UACC-62) was 43.5 µM (inactive). The GI50 (SN12C) was 35.6 µM (inactive), the GI50 (CAKI-1) was 17.2 µM (inactive) and the GI50 (786-0) was 31.8 µM (inactive). For the same molecule, the GI50 (UO-31) was 37.9 µM (inactive), the GI50 (CCRF-CEM) was 22.6 µM (inactive) and the GI50 (NCI/ADR-RES) was 49.5 µM (inactive). The GI50 (T47D) was 32.3 µM (inactive), the GI50 (SK-MEL-28) was 27.9 µM (inactive) and the GI50 (UACC-257) was > 100 µM (inactive). The GI50 (HCT-116) was 24.3 µM (inactive), the GI50 (Hs-578T) was 27.5 µM (inactive) and the GI50 (SNB-75) was 46.8 µM (inactive). For the same molecule, the GI50 (NCI-H23) was 32.5 µM (inactive), the GI50 (OVCAR-4) was 30.6 µM (inactive) and the GI50 (MDA-N) was 58.1 µM (inactive). The GI50 (OVCAR-5) was 67.3 µM (inactive), the GI50 (HCC 2998) was > 100 µM (inactive) and the GI50 (SK-OV-3) was > 100 µM (inactive). For the same molecule, the GI50 (RPMI-8226) was 30.9 µM (inactive), the GI50 (HCT-15) was 17.9 µM and the GI50 (EKVX) was 50.2 µM (inactive). The GI50 (SW-620) was 6.79 µM (inactive), the GI50 (SF-295) was 70.5 µM (inactive) and the GI50 (ACHN) was 17.9 µM (inactive). For the same molecule, the GI50 (PC-3) was 28.8 µM (inactive), the GI50 (SNB-19) was > 100 µM (inactive) and the GI50 (A498) was 56.8 µM (inactive). For the same molecule, the GI50 (MCF7) was 35 µM (inactive), the GI50 (K562) was 26.8 µM (inactive) and the GI50 (SK-MEL-2) was > 100 µM (inactive). The GI50 (HOP-62) was 90.8 µM (inactive), the GI50 (A549) was > 100 µM (inactive) and the GI50 (OVCAR-8) was 15 µM (inactive). For the same molecule, the GI50 (BT-549) was 28.4 µM (inactive), the GI50 (MDA-MB-435) was 44.3 µM (inactive) and the GI50 (NCI-H226) was 86.1 µM (inactive). For the same molecule, the GI50 (SF-539) was 18.2 µM (inactive), the GI50 (MDA-MB-231) was 25.9 µM (inactive) and the GI50 (COLO 205) was 15.6 µM (inactive). The GI50 (KM12) was 30.8 µM (inactive), the GI50 (M14) was 43.9 µM (inactive) and the GI50 (NCI-H460) was > 100 µM (inactive). For the same molecule, the GI50 (SF-268) was 13.6 µM (inactive), the GI50 (OVCAR-3) was 13 µM (inactive) and the GI50 (U-251) was 35.8 µM (inactive). The GI50 (HT-29) was 33.3 µM (inactive).

With `CN(/N=C/C=N/N(C)C1=NCCCCN1)C1=NCCCCN1` the GI50 (MOLT-4) was > 100 µM (inactive), the GI50 (SK-MEL-5) was > 100 µM (inactive) and the GI50 (TK-10) was > 100 µM (inactive). For the same molecule, the GI50 (Malme-3M) was > 100 µM (inactive), the GI50 (UACC-62) was > 100 µM (inactive) and the GI50 (SN12C) was > 100 µM (inactive). The GI50 (CAKI-1) was > 100 µM (inactive), the GI50 (786-0) was > 100 µM (inactive) and the GI50 (UO-31) was > 100 µM (inactive). The GI50 (CCRF-CEM) was > 100 µM (inactive), the GI50 (RXF 393) was > 100 µM (inactive) and the GI50 (NCI/ADR-RES) was > 100 µM (inactive). The GI50 (T47D) was > 100 µM (inactive), the GI50 (SK-MEL-28) was > 100 µM (inactive) and the GI50 (UACC-257) was > 100 µM (inactive). The GI50 (HCT-116) was > 100 µM (inactive), the GI50 (Hs-578T) was > 100 µM (inactive) and the GI50 (SNB-75) was > 100 µM (inactive). For the same molecule, the GI50 (NCI-H23) was > 100 µM (inactive), the GI50 (OVCAR-4) was > 100 µM (inactive) and the GI50 (MDA-N) was > 100 µM (inactive). For the same molecule, the GI50 (OVCAR-5) was > 100 µM (inactive), the GI50 (HCC 2998) was > 100 µM (inactive) and the GI50 (SK-OV-3) was > 100 µM (inactive). For the same molecule, the GI50 (SR) was > 100 µM (inactive), the GI50 (HCT-15) was over 100 µM and the GI50 (EKVX) was > 100 µM (inactive). The GI50 (SW-620) was > 100 µM (inactive), the GI50 (SF-295) was > 100 µM (inactive) and the GI50 (ACHN) was > 100 µM (inactive). For the same molecule, the GI50 (LOX IMVI) was > 100 µM (inactive), the GI50 (PC-3) was > 100 µM (inactive) and the GI50 (SNB-19) was > 100 µM (inactive). For the same molecule, the GI50 (MCF7) was > 100 µM (inactive), the GI50 (K562) was > 100 µM (inactive) and the GI50 (HOP-62) was > 100 µM (inactive). For the same molecule, the GI50 (A549) was > 100 µM (inactive), the GI50 (OVCAR-8) was > 100 µM (inactive) and the GI50 (IGROV-1) was > 100 µM (inactive). For the same molecule, the GI50 (BT-549) was > 100 µM (inactive), the GI50 (MDA-MB-435) was > 100 µM (inactive) and the GI50 (NCI-H226) was > 100 µM (inactive). The GI50 (SF-539) was > 100 µM (inactive), the GI50 (MDA-MB-231) was > 100 µM (inactive) and the GI50 (COLO 205) was > 100 µM (inactive). The GI50 (M14) was > 100 µM (inactive), the GI50 (NCI-H460) was > 100 µM (inactive) and the GI50 (SF-268) was > 100 µM (inactive). The GI50 (OVCAR-3) was > 100 µM (inactive), the GI50 (U-251) was > 100 µM (inactive) and the GI50 (HT-29) was > 100 µM (inactive). For the same molecule, the GI50 (NCI-H522) was > 100 µM (inactive).
